Biological target: T1, HiBiT-tagged endogenous SOS1 protein (Homo sapiens, UniProt Q07889)
T1 construct: HEK293 cells were engineered to express a HiBiT-tagged endogenous SOS1 protein; endogenous in cells; host or cells: HEK293 cells, engineered so that endogenous SOS1 carries a HiBiT tag
T1 sequence (Q07889 1-1333): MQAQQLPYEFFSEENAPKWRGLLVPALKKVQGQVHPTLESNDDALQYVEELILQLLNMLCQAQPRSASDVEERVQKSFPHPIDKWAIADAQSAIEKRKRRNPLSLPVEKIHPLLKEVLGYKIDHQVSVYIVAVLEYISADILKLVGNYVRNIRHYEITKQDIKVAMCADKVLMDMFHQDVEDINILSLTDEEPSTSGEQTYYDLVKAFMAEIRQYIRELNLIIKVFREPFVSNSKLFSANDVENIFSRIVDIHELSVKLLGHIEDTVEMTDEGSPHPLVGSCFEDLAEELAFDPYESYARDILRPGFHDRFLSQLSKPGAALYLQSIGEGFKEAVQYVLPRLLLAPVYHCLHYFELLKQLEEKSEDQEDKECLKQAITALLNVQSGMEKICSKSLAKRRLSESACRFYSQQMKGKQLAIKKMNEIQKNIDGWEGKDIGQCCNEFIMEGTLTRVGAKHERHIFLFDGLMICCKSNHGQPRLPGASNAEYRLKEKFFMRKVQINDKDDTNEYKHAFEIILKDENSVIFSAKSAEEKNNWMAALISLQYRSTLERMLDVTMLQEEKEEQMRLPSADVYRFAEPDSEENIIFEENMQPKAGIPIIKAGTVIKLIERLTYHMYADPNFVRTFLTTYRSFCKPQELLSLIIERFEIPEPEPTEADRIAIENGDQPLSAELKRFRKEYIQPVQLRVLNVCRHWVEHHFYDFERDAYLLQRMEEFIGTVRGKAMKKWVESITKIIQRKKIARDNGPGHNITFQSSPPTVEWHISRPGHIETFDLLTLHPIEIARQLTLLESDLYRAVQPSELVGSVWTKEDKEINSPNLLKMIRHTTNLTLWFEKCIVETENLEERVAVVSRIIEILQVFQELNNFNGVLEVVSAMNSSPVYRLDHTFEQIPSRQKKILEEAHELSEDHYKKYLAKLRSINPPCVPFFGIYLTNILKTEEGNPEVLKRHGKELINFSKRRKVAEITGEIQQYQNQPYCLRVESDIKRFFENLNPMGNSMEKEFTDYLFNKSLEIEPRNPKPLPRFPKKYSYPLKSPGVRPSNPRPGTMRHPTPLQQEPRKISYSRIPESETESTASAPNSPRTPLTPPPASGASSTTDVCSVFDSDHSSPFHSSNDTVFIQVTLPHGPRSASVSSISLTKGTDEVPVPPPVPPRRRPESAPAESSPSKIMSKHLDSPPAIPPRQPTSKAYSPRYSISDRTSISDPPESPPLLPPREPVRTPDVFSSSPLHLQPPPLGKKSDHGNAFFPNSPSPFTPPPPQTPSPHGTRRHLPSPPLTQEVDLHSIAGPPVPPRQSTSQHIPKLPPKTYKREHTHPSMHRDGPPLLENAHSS
Assay: SOS1-HiBiT Degradation Assay
Format: cell-based
Settings: HEK293 cells expressing HiBiT-tagged endogenous SOS1, 6 h treatment
Method: HEK293 cells were engineered to express a HiBiT-tagged endogenous SOS1 protein. The cells were cultured in DMEM media supplemented with 10% fetal bovine serum, streptomycin, and penicillin. The cells were seeded in a white walled 384-well plate at 12,500 cells/well in 50 μL culture media. The cells were incubated at 37° C. under 5% CO2 overnight. The cells were then treated with DMSO (control) or a compound for 6 h at 37° C. under 5% CO2. After incubation, 25 μL media was removed from each cell and 25 μL NANO-GLO® lytic detection reagent was added to each well. After a 10 min incubation with shaking, luminescence was measured using a PERKINELMER ENVISION® multimode plate reader.
The results are summarized in Table 1, where “A” represents a DC50 of no greater than 100 nM, “B” represents a DC50 of greater than 100 nM and no greater than 500 nM; “C” represents a DC50 of greater than 500 nM and no greater than 2 μM; and “D” represents a DC50 of greater than 2 μM; and where “A′” represents a Dmax of no less than 70%, “B′” represents a Dmax of less than 70% and no less than 50%; “C′” represents a Dmax of less than 50% and no less than 30%; and “D′” represents a Dmax of less than 30%. Compounds C1 and C2 are (R)-2-(3-(1-((6,7-dimethoxy-2-methylquinazolin-4-yl)amino)ethyl)phenyl)-2,2-difluoroethan-1-ol and (R)—N-(1-(3-amino-5-(trifluoromethyl)phenyl)ethyl)-6,7-dimethoxy-2-methylquinazolin-4-amine, respectively.

DC50 [µM]	Dmax [%]	SMILES
> 10	0	COc1cc2nc(C)nc(N[C@H](C)c3cc(N)cc(C(F)(F)F)c3)c2cc1OC [Compound C2, (R)—N-(1-(3-amino-5-(trifluoromethyl)phenyl)ethyl)-6,7-dimethoxy-2-methylquinazolin-4-amine]
> 10	0	COc1cc2nc(C)nc(N[C@H](C)c3cccc(C(F)(F)CO)c3)c2cc1OC [Compound C1, (R)-2-(3-(1-((6,7-dimethoxy-2-methylquinazolin-4-yl)amino)ethyl)phenyl)-2,2-difluoroethan-1-ol]
